What was measured:
[1] = Example 8 pilot study: peak plasma DMF level (GC/MS); assay type: in vivo; details: human, topical or ocular
Experimental: (§1) A pilot study was conducted to evaluate the efficacy of transdermal DMF in the treatment of patients infected with HIV. Informed consent was obtained from each patient. Seropositive status was verified by Western blot using a commercial kit for detecting antibodies to p24 (Abbott Diagnostics) and the presence of HIV-1 was documented by quantitative PCR using a commercial kit (Roche Amplicor).
Operational parameters were as follows: GC temperature program: 60° C. for 1 min. followed by a temperature gradient of 9.4° C./min. for 20 min. MS ionization method: electron impact; mass range: 40-80 mass units; 1 scan/sec; peak threshold: 3 counts/sec; background mass: 69 mass units. A stock solution of dimethylacetamide was used as an internal standard. All samples were extracted with an organic solvent containing the internal standard, allowed to precipitate for 30 min. in a refrigerator, and centrifuged at 3000×g for 5 min. before transfer to GC vials for injection.
(§2) Dermal patches 9 cm in diameter were used within 12 hours of manufacture. […] The patches were visually inspected to verify the absence of leakage and were weighed on an analytical balance to verify less than 10% deviation from a total mass of 8.153 g. The patches were applied to the skin of the forearm and secured with Elastoplast™ bandages. Either one or two patches were used for the initial dose, as determined from the predicted skin transfer rate of 9.4 mg/cm^2 /hr and the patient's body weight.
A staged dose of DMF was used, with two-hourly blood and urine sampling to determine peak plasma DMF levels. […] Initial evaluation included daily determination of: […]

[2] = Example 8 pilot study: adverse effects and liver enzymes; assay type: in vivo, human
Experimental: as §1, §2
(§3) A staged dose of DMF was used, with two-hourly blood and urine sampling to determine peak plasma DMF levels. […] Initial evaluation included daily determination of:
b) serum urea, creatinine, glucose, sodium, potassium, ALT, AST, alkaline phosphatase and total bilirubin;

HIV-1 = assay: Example 8 pilot study: HIV-1 load by quantitative PCR (Roche Amplicor); assay type: in vivo, human
Experimental: as §1, §2, §3
d) Quantitative estimates of HIV-1 load by PCR (Roche Amplicor) and analysis of antibody to p24 (Abbott);

Which results are given for `CN(C)C=O` [DMF, N,N'-dimethylformamide]?
Cmax ([1]; 3750 mg, Patient 6, two patches once weekly, 6 hours, average weekly dose 3.75 g): 67 µg/mL; Cmax ([1]; 4600 mg, Patient 7, 1 patch, 4 hours, average weekly dose 4.60 g): 100 µg/mL; Cmax ([1]; 6110 mg, Patient 3, two patches once a week, 8 hours, average weekly dose 6.11 g): 75 µg/mL; Cmax ([1]; 6240 mg, Patient 8, two patches once weekly, 8 hours, average weekly dose 6.24 g): 130 µg/mL; Cmax ([1]; 7120 mg, Patient 2, one patch per week, 8 hours, average weekly dose 7.12 g): 125 µg/mL; Cmax ([1]; 7330 mg, Patient 4, two patches once weekly, 8 hours, average weekly dose 7.33 g): 90 µg/mL; Cmax ([1]; 8250 mg, Patient 5, two patches weekly, 8 hours, average weekly dose 8.25 g): 110 µg/mL; Cmax ([1]; 8970 mg, Patient 1, two patches once a week, 8 hours, average weekly dose 8.97 g): 121 µg/mL; maximum elevation of liver enzymes ([2]; four patients with transient elevation): three; local skin irritation at the area of application ([2]; most patients, after removal of the patches): mild local skin irritation; appearance of skin at the application site ([2]; most patients, probably due to intense hydration under the patch): maculopapular appearance; nausea ([2]; most patients, usually on day three after treatment): mild transient nausea; patients with transient elevation of liver enzymes ([2]; of 8 patients, in most cases returned to pre-treatment levels before next dose): Four; blistering ([2]; one case, resolved within 24 hours): slight blistering; nausea ([2]; one patient): moderate transient nausea; PCR-measured viral load (HIV-1; Patient 1, after 7 weeks, from 222,000): 160,000 copies/ml; PCR-measured viral load (HIV-1; Patient 2, after 9 weeks, from 29,000): 13,000 copies/ml; PCR-measured viral load (HIV-1; Patient 3, after 9 weeks, from 250,000): 50,000 copies/ml; PCR-measured viral load (HIV-1; Patient 4, after 18 weeks, from 13,000): 4,000 copies/ml; PCR-measured viral load (HIV-1; Patient 5, after 19 weeks, from 120,000): 24,000 copies/ml; PCR-measured viral load (HIV-1; Patient 6, after 5 weeks, from 156,000): 13,000 copies/ml; PCR-measured viral load (HIV-1; Patient 7, after 9 treatments, initial 1,156,000): 9,000 copies/ml; PCR-measured viral load (HIV-1; Patient 8, after 8 weeks, from 1,200,000): 250,000 copies/ml; decline in PCR-measured viral load (HIV-1; after 42 days, Gompertz curve fit, five out of eight patients): 88.8%

Source: patent publication US5935597A, “Drug delivery devices and methods for treatment of viral and microbial infections and wasting syndromes” (Cryopreservation Technologies CC, priority 1995, dated 1999)
